The values below come from patent US20260258036A1, “INHIBITORS OF HUMAN ALDOSTERONE SYNTHASE (CYP11B2)” («TARGET MEDICALS» LIMITED LIABILITY COMPANY, priority 2022, published 2026).

As usually defined, the inhibition is the percentage by which the read-out fell short of the control.

Each structure is given as a SMILES string.

One experiment addresses T1, recombinant CYP11B2 (Homo sapiens, UniProt P19099).
T1 sequence (P19099 25-503): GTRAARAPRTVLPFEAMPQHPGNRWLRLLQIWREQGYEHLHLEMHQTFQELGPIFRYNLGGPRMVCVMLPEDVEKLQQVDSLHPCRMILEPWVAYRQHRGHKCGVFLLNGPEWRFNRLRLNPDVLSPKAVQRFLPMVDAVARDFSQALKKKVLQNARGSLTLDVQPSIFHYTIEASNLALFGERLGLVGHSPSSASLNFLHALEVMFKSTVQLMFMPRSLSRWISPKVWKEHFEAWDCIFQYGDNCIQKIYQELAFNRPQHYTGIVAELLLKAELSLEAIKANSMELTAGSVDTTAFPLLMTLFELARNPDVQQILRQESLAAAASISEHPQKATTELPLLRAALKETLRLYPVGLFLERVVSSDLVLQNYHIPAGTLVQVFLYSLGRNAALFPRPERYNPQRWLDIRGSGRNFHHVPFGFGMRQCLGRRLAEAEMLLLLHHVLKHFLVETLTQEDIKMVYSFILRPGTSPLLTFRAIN
In words: Inhibition of CYP11B2 activity in a reconstructed enzyme system (HPLC with UV detector). In kind it is biochemical. The following applies: compounds 1_xx; test compound final concentration ≤2 μM; corticosterone substrate; 30 minutes at 37° C.; read-out: Level of CYP11B2 activity inhibition. The procedure:
The authors of the present invention investigated the activity of the compounds according to the invention as inhibitors of CYP11 B2 when analyzed in a reconstructed system containing 0.5 μm recombinant CYP1 1B2, 0.3 μm human adrenodoxin reductase, 2 μm human adrenodoxin, 100 μm corticosterone as a control reaction to detect the formation of a product with using an HPLC system with a UV detector. The test compound is added to the reaction mixture to a final concentration of ≤2 μM. The concentrated protein mixture was diluted with buffer to a final volume of 0.5 ml, pre-incubated for 10 min at 37° C., followed by the addition of the substrate. Reactions are initiated by adding NADPH (nicotinamide adenine dinucleotide phosphate) to a final concentration of 0.25 mM with a regenerating system (glucose-6-phosphate and glucose-6-phosphate dehydrogenase) in 25 mM potassium phosphate buffer, pH 7.4, containing 0.1 mM DTT (dithiothreitol), 0.1% Tween-20.4 mM MgCl2 and incubated at 37° C. After 30 minutes of incubation, the reaction is stopped by adding 5 ml of dichloromethane. The organic phase is isolated by centrifugation, evaporation, dissolution in ethanol and transferred to a vial for HPLC studies. A C18 Luna 100 Å 250×4, 6 mm column was used on an Agilent Technologies 1200 series instrument (USA) with ethanol as the mobile phase.
Activity (a) is calculated as the amount of product in nmol per minute per 1 nmol of CYP.
where k is the correction factor (k=1 is used as the molar extinction coefficients of steroid substrates and products similar at a detection wavelength of 254 nm), As is the peak area of the substrate, cs is the concentration of the substrate, Ap is the peak area of the product, ce is the concentration of CYP (cytochrome P450), t is the reaction time.
The level of inhibition of CYP11 B2 activity is expressed as a percentage, where 0% is defined as no inhibition in reactions without test compound and 100% is absolute inhibition by test compound.
As for `CN1CCN(c2c(F)cc(S(=O)(=O)n3ccc4c(-c5ncc(F)cn5)cncc43)cc2F)CC1` [Compound 1_29, 1-((3,5-difluoro-4-(4-methylpiperazin-1-yl)phenyl)sulfonyl)-4-(5-fluoropyrimidin-2-yl)-1H-pyrrolo[2,3-c]pyridine], the inhibition at 2 µM lay within 50 to 100%.
Consider `CN(c1c(F)cc(S(=O)(=O)n2ccc3c(-c4ccccn4)cncc32)cc1F)C1CCC1` [Compound 1_14, N-cyclobutyl-2,6-difluoro-N-methyl-4-((4-(pyridin-2-yl)-1H-pyrrolo[2,3-c]pyridin-1-yl)sulfonyl)aniline], for which the inhibition at 2 µM was in the range of 50 to 100%.
As to `CN1CCN(c2c(F)cc(S(=O)(=O)n3ccc4c(-c5nc(C#N)co5)cncc43)cc2F)CC1` [Compound 1_27, 2-(1-((3,5-difluoro-4-(4-methylpiperazin-1-yl)phenyl)sulfonyl)-1H-pyrrolo[2,3-c]pyridin-4-yl)oxazol-4-carbonitrile], the inhibition at 2 µM was in the range of 50 to 100%.
As to `CN1CCN(c2c(F)cc(S(=O)(=O)n3ccc4c(-c5ccccn5)cncc43)cc2F)CC1` [Compound 1_12, 1-((3,5-difluoro-4-(4-methylpiperazin-1-yl)phenyl)sulfonyl)-4-(pyridin-2-yl)-1H-pyrrolo[2,3-c]pyridine], the inhibition at 2 µM was 50 to 100%.
Regarding `O=S(=O)(c1cc(F)c(NC2CC2)c(F)c1)n1ccc2c(-c3ccccn3)cncc21` [Compound 1_13, N-cyclopropyl-2,6-difluoro-4-((4-(pyridin-2-yl)-1H-pyrrolo[2,3-c]pyridin-1-yl)sulfonyl)aniline], the inhibition at 2 µM lay in the range of 50 to 100%.
Same read-out and setting: with `CN1CC2CN(c3c(F)cc(S(=O)(=O)n4ccc5c(-c6ccccn6)cncc54)cc3F)CC2C1` (stereo not drawn) [Compound 1_24, 1-((3,5-difluoro-4-(5-methylhexahydropyrrolo[3,4-c]pyrrol-2(1H)-yl)phenyl)sulfonyl)-4-(pyridin-2-yl)-1H-pyrrolo [2,3-s]pyridine] the figure was 20 to 100%; with `CC1CN(c2c(F)cc(S(=O)(=O)n3ccc4c(-c5ccccn5)cncc43)cc2F)C1` [Compound 1_19, 1-((3,5-difluoro-4-(3-methylazetidin-1-yl)phenyl)sulfonyl)-4-(pyridin-2-yl)-1H-pyrrolo[2,3-c]pyridine], 50 to 100%; with `Cc1csc(N(C)c2c(F)cc(S(=O)(=O)n3ccc4c(-c5ccccn5)cncc43)cc2F)n1` [Compound 1_20, N-(2,6-difluoro-4-((4-(pyridin-2-yl)-1H-pyrrolo[2,3-c]pyridin-1-yl)sulfonyl)phenyl)-N,4-dimethylthiazol-2-amine], 50 to 100%.
Consider `CNc1cnc(-c2cncc3c2ccn3S(=O)(=O)c2cc(F)c(N3CCN(C)CC3)c(F)c2)cn1` [Compound 1_30, 5-(1-((3,5-difluoro-4-(4-methylpiperazin-1-yl)phenyl)sulfonyl)-1H-pyrrolo[2,3-c]pyridin-4-yl)-N-methylpyrazin-2-amine], for which the inhibition at 2 µM is 1 to 100%.
Same read-out and setting: with `CN(C)CCNc1c(F)cc(S(=O)(=O)n2ccc3c(-c4ccccn4)cncc32)cc1F` [Compound 1_22, N1-(2,6-difluoro-4-((4-(pyridin-2-yl)-1H-pyrrolo[2,3-c]pyridin-1-yl)sulfonyl)phenyl)-N2,N2-dimethylethane-1,2-diamine] the figure was 50 to 100%; with `CN1CCC(Nc2c(F)cc(S(=O)(=O)n3ccc4c(-c5ccccn5)cncc43)cc2F)CC1` [Compound 1_21, N-(2,6-difluoro-4-((4-(pyridin-2-yl)-1H-pyrrolo[2,3-c]pyridin-1-yl)sulfonyl)phenyl)-1-methylpiperidin-4-amine], 50 to 100%; with `Nc1c(F)cc(S(=O)(=O)n2ccc3c(-c4ccccn4)cncc32)cc1F` [Compound 1_11, 2,6-difluoro-4-((4-(pyridin-2-yl)-1H-pyrrolo[2,3-c]pyridin-1-yl)sulfonyl)aniline], 50 to 100%.
For `COc1c(C)cc(S(=O)(=O)n2ccc3c(-c4cnc(C)cn4)cncc32)cc1C` [Compound 1_02, 1-((4-methoxy-3,5-dimethylphenyl)sulfonyl)-4-(5-methylpyrazin-2-yl)-1H-pyrrolo[2,3-c]pyridine], the inhibition at 2 µM was in the range of 50 to 100%.
Regarding `CN(C)c1c(F)cc(S(=O)(=O)N2CCc3c(-c4ccccn4)cncc32)cc1F` [Compound 1_15, 2,6-difluoro-N,N-dimethyl-4-((4-(pyridin-2-yl)-2,3-dihydro-1H-pyrrolo[2,3-c]pyridin-1-yl)sulfonyl)aniline], the inhibition at 2 µM lay within 20 to 100%.
Still for that read-out and setting: with `CN(C)c1c(F)cc(S(=O)(=O)n2ccc3c(-c4ccccn4)cncc32)cc1F` [Compound 1_09, 2,6-difluoro-N,N-dimethyl-4-((4-(pyridin-2-yl)-1H-pyrrolo[2,3-c]pyridin-1-yl)sulfonyl)aniline] the figure was 50 to 100%.

Still in this experiment, the particulars now being: compounds 2_xx, 3_xx, 4_01; test compound final concentration ≤2 μM; corticosterone substrate; 30 minutes at 37° C.; read-out: Level of CYP11B2 activity inhibition.
With `CN1CCN(c2c(F)cc(S(=O)(=O)n3ccc4c(-c5cnc(C#N)nc5)cncc43)cc2F)CC1` [Compound 3_09, 5-(1-((3,5-difluoro-4-(4-methylpiperazin-1-yl)phenyl)sulfonyl)-1H-pyrrolo[2,3-c]pyridin-4-yl)pyrimidine-2-carbonitrile], the inhibition at 2 µM is 35 to 100%.
In the case of `CN1CCN(c2c(F)cc(S(=O)(=O)n3ccc4c(-c5ccccn5)cncc43)cc2F)CC1` [Compound 4_01, 1-((3,5-difluoro-4-(4-methylpiperazin-1-yl)phenyl)sulfonyl)-4-(pyridin-2-yl)-1H-pyrrolo[2,3-c]pyridine], the inhibition at 2 µM lay within 35 to 100%.
The same measure, in the same setting: with `CNc1ccc(-c2cncc3c2ccn3S(=O)(=O)c2cc(F)c(N3CCN(C)CC3)c(F)c2)nc1` [Compound 3_02, 6-(1-((3,5-difluoro-4-(4-methylpiperazin-1-yl)phenyl)sulfonyl)-1H-pyrrolo[2,3-c]pyridin-4-yl)-N-methylpyridin-3-amine] the figure was 35 to 100%.
As to `CN1CC2CC1CN2c1c(F)cc(S(=O)(=O)n2ccc3c(-c4ccccn4)cncc32)cc1F` (stereo not drawn) [Compound 3_17, 1-((3,5-difluoro-4-(5-methyl-2,5-diazabicyclo[2.2.1]heptan-2-yl)phenyl)sulfonyl)-4-(pyridin-2-yl)-1H-pyrrolo[2,3-c]pyridine], the inhibition at 2 µM was in the range of 35 to 100%.
Consider `CC(C)N1CCN(c2c(F)cc(S(=O)(=O)n3ccc4c(-c5ccccn5)cncc43)cc2F)CC1` [Compound 3_11, 1-((3,5-difluoro-4-(4-isopropylpiperazin-1-yl)phenyl)sulfonyl)-4-(pyridin-2-yl)-1H-pyrrolo[2,3-c]pyridine], for which the inhibition at 2 µM was in the range of 35 to 100%.
On the same count and under the same terms, with `CN1CCN(c2c(F)cc(S(=O)(=O)n3ccc4c(-c5ccc(C#N)nn5)cncc43)cc2F)CC1` [Compound 3_10, 6-(1-((3,5-difluoro-4-(4-methylpiperazin-1-yl)phenyl)sulfonyl)-1H-pyrrolo[2,3-c]pyridin-4-yl)pyridazine-3-carbonitrile] the figure was 35 to 100%; with `CN1CCCN(c2c(F)cc(S(=O)(=O)n3ccc4c(-c5ccccn5)cncc43)cc2F)CC1` [Compound 3_13, 1-((3,5-difluoro-4-(4-methyl-1,4-diazepan-1-yl)phenyl)sulfonyl)-4-(pyridin-2-yl)-1H-pyrrolo[2,3-c]pyridine], 35 to 100%; with `CN1CC2CN(c3c(F)cc(S(=O)(=O)n4ccc5c(-c6cnc(C#N)cn6)cncc54)cc3F)CC2C1` (stereo not drawn) [Compound 3_23, 5-(1-((3,5-difluoro-4-(5-methylhexahydropyrrolo[3,4-c]pyrrol-2(1H)-yl)phenyl)sulfonyl)-1H-pyrrolo[2,3-c]pyridin-4-yl)pyrazine-2-carbonitrile], 35 to 100%.
Still for that read-out and setting: with `CN1CC2CN(c3c(F)cc(S(=O)(=O)n4ccc5c(-c6ccc(C#N)nc6)cncc54)cc3F)CC2C1` (stereo not drawn) [Compound 3_24, 5-(1-((3,5-difluoro-4-(5-methylhexahydropyrrolo[3,4-c]pyrrol-2(1H)-yl)phenyl)sulfonyl)-1H-pyrrolo[2,3-c]pyridin-4-yl)picolinonitrile] the figure was 35 to 100%.
